Experimental data from ChEMBL document CHEMBL1201862, “PubChem BioAssay data set” (2004).
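Grown in 96-well plates, cells were treated for 48 hours with each compound at five concentrations. Insufficient inhibition: endpoint recorded as highest concentration tested. GI50 marks 50% less growth.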 Active and inactive are the calls of the source. Rule as the data show it: active = GI50 up to about 1.1 µM and inactive = higher.

Tests used:
Assay in all cases: DTP human tumour cell line panel, 48 h
[1] = test system: OVCAR-4
[2] = test system: NCI-H23
[3] = test system: A498
[4] = test system: UACC-257
[5] = test system: K562
[6] = test system: OVCAR-8
[7] = test system: SNB-19
[8] = test system: UO-31
[9] = test system: SF-539
[10] = test system: SK-MEL-28
[11] = test system: M14
[12] = test system: HL-60
[13] = test system: ACHN
[14] = test system: SK-OV-3
[15] = test system: DU-145
[16] = test system: UACC-62
[17] = test system: A549
[18] = test system: HCC 2998
[19] = test system: SK-MEL-5
[20] = test system: OVCAR-3

SMILES | GI50 [1] | GI50 [2] | GI50 [3] | GI50 [4] | GI50 [5] | GI50 [6] | GI50 [7] | GI50 [8] | GI50 [9] | GI50 [10] | GI50 [11] | GI50 [12] | GI50 [13] | GI50 [14] | GI50 [15] | GI50 [16] | GI50 [17] | GI50 [18] | GI50 [19] | GI50 [20]
O=C(NC(Cc1c[nH]c2ccccc12)C(=O)O)/C(=C/c1ccccc1O)NC(=O)c1ccccc1 (configuration not stated) | 57.5 µM (inactive) | 51.6 µM (inactive) | > 100 µM (inactive) | > 100 µM (inactive) | > 100 µM (inactive) | 15.5 µM (inactive) | 22.7 µM (inactive) | 6.78 µM (inactive) | 16.1 µM (inactive) | > 100 µM (inactive) | > 100 µM (inactive) | > 100 µM (inactive) | 19.2 µM (inactive) | 22.3 µM (inactive) | 43.4 µM (inactive) | 24.2 µM (inactive) | 60.5 µM (inactive) | 42.2 µM (inactive) | > 100 µM (inactive) | 
COC(=O)c1ccc(CCC2=CC(=O)C=CC2=O)cc1 | 17.7 µM (inactive) | 17.9 µM (inactive) | 18.7 µM (inactive) | 9.08 µM (inactive) | 2.37 µM (inactive) | 17.4 µM (inactive) | 22.4 µM (inactive) | 7.36 µM (inactive) | 11.5 µM (inactive) | 9.42 µM (inactive) | 15.1 µM (inactive) | 0.728 µM (active) | 7.71 µM (inactive) |  | 18.2 µM (inactive) | 13.7 µM (inactive) | 23.5 µM (inactive) | 16.7 µM (inactive) | 12.9 µM (inactive) | 6.85 µM (inactive)
O=C1C2C(C(=O)N1c1ccccc1)C1(c3ccccc3)CCC2(C(=O)c2ccccc2)O1 (configuration not stated) | > 10 µM (inactive) | > 10 µM (inactive) | > 10 µM (inactive) | > 10 µM (inactive) |  | > 10 µM (inactive) | > 10 µM (inactive) | > 10 µM (inactive) | > 10 µM (inactive) | > 10 µM (inactive) | > 10 µM (inactive) | > 10 µM (inactive) | > 10 µM (inactive) | > 10 µM (inactive) | > 10 µM (inactive) | > 10 µM (inactive) | > 10 µM (inactive) | > 10 µM (inactive) | > 10 µM (inactive) | > 10 µM (inactive)
CCOC(=O)C1=C(C)N(CC(C)C)C2(O)C(OC)CC(=O)C3C(=O)N(c4ccccc4)C(=O)C132 (configuration not stated) | 27.7 µM (inactive) | 35 µM (inactive) | 78.5 µM (inactive) | 37.4 µM (inactive) | 31.9 µM (inactive) | 26.1 µM (inactive) | 42.4 µM (inactive) | 20 µM (inactive) | 49.4 µM (inactive) | 23.8 µM (inactive) | 38.3 µM (inactive) | 25 µM (inactive) | 24.9 µM (inactive) |  | 52 µM (inactive) | 19.3 µM (inactive) | 43.4 µM (inactive) | 24.8 µM (inactive) | 20.1 µM (inactive) | 43.3 µM (inactive)
O=C1NC(O)CCN1C1CC(O)C(CO)O1 (configuration not stated) |  | > 100 µM (inactive) | > 100 µM (inactive) | > 100 µM (inactive) | > 100 µM (inactive) | > 100 µM (inactive) | > 100 µM (inactive) | > 100 µM (inactive) | > 100 µM (inactive) | > 100 µM (inactive) | > 100 µM (inactive) | > 100 µM (inactive) | > 100 µM (inactive) | > 100 µM (inactive) | > 100 µM (inactive) | > 100 µM (inactive) | > 100 µM (inactive) | > 100 µM (inactive) | > 100 µM (inactive) | > 100 µM (inactive)
O=C1/C(=C/c2cccc3ccccc23)CCc2ccc([N+](=O)[O-])cc21 |  | 67.5 µM (inactive) | 19.3 µM (inactive) |  | 7.16 µM (inactive) | 37.3 µM (inactive) | 12.7 µM (inactive) | 33.7 µM (inactive) | 21.5 µM (inactive) | 16.6 µM (inactive) | 24.4 µM (inactive) | 8.83 µM (inactive) | 26.8 µM (inactive) | 21.6 µM (inactive) | 51.6 µM (inactive) | 13.3 µM (inactive) | 22.8 µM (inactive) | 83.8 µM (inactive) |  | 3.22 µM (inactive)
COc1cc(C23OCC(Cc4cc5c(cc42)OCO5)C3CO)cc(OC)c1OC (configuration not stated) | 41.1 µM (inactive) | 3.45 µM (inactive) | 5.61 µM (inactive) | > 100 µM (inactive) | 3.89 µM (inactive) | 4.14 µM (inactive) | 3.14 µM (inactive) | 8.95 µM (inactive) | 2.52 µM (inactive) | > 100 µM (inactive) | 3.64 µM (inactive) | 2.76 µM (inactive) | 7.13 µM (inactive) | 3.19 µM (inactive) | 2.64 µM (inactive) |  | 3.48 µM (inactive) | 0.24 µM (active) | 6.7 µM (inactive) | 1.46 µM (inactive)
COc1ccc(-c2nc3cc(C(F)(F)F)ccc3n2CC2CCCN3CCCCC23)cc1 (configuration not stated) | 17.1 µM (inactive) | 15.6 µM (inactive) | 13.4 µM (inactive) | 13.8 µM (inactive) | 14.8 µM (inactive) | 17.1 µM (inactive) |  | 17.1 µM (inactive) | 16.8 µM (inactive) | 14.9 µM (inactive) | 13 µM (inactive) | 14.3 µM (inactive) | 15.6 µM (inactive) | 17.7 µM (inactive) | 17.1 µM (inactive) |  |  | 12.1 µM (inactive) | 14.4 µM (inactive) | 16.1 µM (inactive)
c1ccc(CCN2CCc3[nH]c4ccccc4c3C2)cc1 | 40.4 µM (inactive) | 30.5 µM (inactive) | 13.9 µM (inactive) | 14.9 µM (inactive) | 16.9 µM (inactive) | 20.4 µM (inactive) | 20.8 µM (inactive) | 13.6 µM (inactive) | 22.8 µM (inactive) | 20 µM (inactive) | 17.1 µM (inactive) | 19 µM (inactive) | 28.1 µM (inactive) | 35.8 µM (inactive) | > 100 µM (inactive) | > 10 µM (inactive) | 24.6 µM (inactive) | 16.3 µM (inactive) | 16.5 µM (inactive) | 
Cc1coc2c1CC1(C)C(CCC(O)C1C)C2 (configuration not stated) | > 100 µM (inactive) | > 100 µM (inactive) | > 100 µM (inactive) | > 100 µM (inactive) | > 100 µM (inactive) | > 100 µM (inactive) | > 100 µM (inactive) |  | > 100 µM (inactive) |  | > 100 µM (inactive) | > 100 µM (inactive) | > 100 µM (inactive) | > 100 µM (inactive) | > 100 µM (inactive) | > 100 µM (inactive) | > 100 µM (inactive) | > 100 µM (inactive) | > 100 µM (inactive) | > 100 µM (inactive)
OCC1CCCC1O (configuration not stated) | > 100 µM (inactive) | > 100 µM (inactive) | > 100 µM (inactive) | > 100 µM (inactive) | > 100 µM (inactive) | > 100 µM (inactive) | > 100 µM (inactive) | > 100 µM (inactive) | > 100 µM (inactive) | > 100 µM (inactive) | > 100 µM (inactive) | > 100 µM (inactive) | > 100 µM (inactive) |  | > 100 µM (inactive) | > 100 µM (inactive) | > 100 µM (inactive) | > 100 µM (inactive) | > 100 µM (inactive) | > 100 µM (inactive)
O=S(=O)(CCn1c(Sc2ccccc2)c(Sc2ccccc2)c2ccccc21)c1ccccc1 | > 100 µM (inactive) | > 100 µM (inactive) | > 100 µM (inactive) |  | > 100 µM (inactive) | > 100 µM (inactive) | > 100 µM (inactive) | > 100 µM (inactive) | > 100 µM (inactive) | > 100 µM (inactive) | > 100 µM (inactive) | > 100 µM (inactive) | > 100 µM (inactive) | > 100 µM (inactive) | > 100 µM (inactive) | > 100 µM (inactive) | > 100 µM (inactive) | > 100 µM (inactive) | > 100 µM (inactive) | > 100 µM (inactive)
Cc1ccc(S(=O)(=O)NC(=O)Nc2cccc(S(N)(=O)=O)c2)cc1 | > 100 µM (inactive) | > 100 µM (inactive) | > 100 µM (inactive) |  | > 100 µM (inactive) |  | > 100 µM (inactive) | > 100 µM (inactive) | > 100 µM (inactive) | > 100 µM (inactive) | > 100 µM (inactive) | > 100 µM (inactive) | > 100 µM (inactive) | > 100 µM (inactive) | > 100 µM (inactive) | > 100 µM (inactive) | > 100 µM (inactive) | > 100 µM (inactive) | > 100 µM (inactive) | > 100 µM (inactive)
Cc1ccc(/N=C2\SC(=NN(C)C)S\C2=N/c2ccc(C)cc2)cc1 | > 100 µM (inactive) | > 100 µM (inactive) | > 100 µM (inactive) | > 100 µM (inactive) | > 100 µM (inactive) | > 100 µM (inactive) | > 100 µM (inactive) | > 100 µM (inactive) | > 100 µM (inactive) | > 100 µM (inactive) |  | > 100 µM (inactive) | > 100 µM (inactive) | > 100 µM (inactive) | > 100 µM (inactive) | > 100 µM (inactive) | > 100 µM (inactive) | > 100 µM (inactive) | > 100 µM (inactive) | 
CCCOC(=O)NC(C)C(=O)NC(CCC(=O)NC(CCCC(N)C(=O)O)C(=O)NC(C)C(=O)O)C(=O)O (configuration not stated) | 29.4 µM (inactive) | > 100 µM (inactive) | > 100 µM (inactive) | > 10 µM (inactive) |  | 17.9 µM (inactive) | 27.7 µM (inactive) | 41.8 µM (inactive) | 14.8 µM (inactive) | 19.4 µM (inactive) | 18.3 µM (inactive) | 24.8 µM (inactive) | 42.9 µM (inactive) |  | 24.4 µM (inactive) | 18.6 µM (inactive) | 74.6 µM (inactive) | 17.1 µM (inactive) | 15.7 µM (inactive) | 80.9 µM (inactive)
